Columns and labels:
Type in all cases: cell-based
[1] = system: Human Embryo Kidney (HEK) 293 cells; assay: Hypothermia/rewarming injury of HEK cells, trypan blue viability count
Method: Human Embryo Kidney (HEK) 293 cells were cultured in DMEM cell culture medium (Life Technologies, 41965-052) supplemented with fetal calf serum, penicillin and streptomycin. Cells were seeded at a density of 0.8-1.2E6 mL-1 in 25 cm2 polystyrene flasks, placed in a 37° C.
The compounds were dissolved in dimethyl sulfoxide (DMSO) to several concentrations. Before commencing experiments, this stock solution was dissolved in pre-warmed DMEM and further diluted to obtain a concentration range from 10 nM-1 mM. Cell culture medium was then replaced by these dilutions and cells were incubated in the presence of the compound for 1 hour. After incubation, lids were closed tightly and flasks were placed in a 4° C. room and cooled for 24 hours. After this cooling period, cells were placed back in the 37° C. incubator with lids closed and were allowed to rewarm for another 24 hours.
After this rewarming period, microscopic images were taken to assess cell morphology (Nikon D5100, Nikon Diaphot-TMD). Cell culture medium was collected and centrifuged (4 minutes, 2000 rpm). The supernatant was collected and pH was immediately measured to prevent equilibration of the pH by the carbonate buffer in the medium, while the pelleted cells were resuspended in 5 mL of PBS. Cells remaining in the flask were washed twice with phosphate buffered saline (PBS) while the washing product was discarded. Subsequently, the cells were trypsinized by addition of 0.5 mL of trypsine and pooled with the resuspended pellet. This cell suspension was then stained at a final concentration of 0.2% trypan blue (Sigma, T8154), followed by manual assessment of viability and cell number on a Bürker-Türk hemocytometer. To conclude the assay, cell culture medium glucose levels were measured (Roche Accutrend Plus) as an indication of metabolic activity. All of these steps were performed with care to prevent mechanical stress to influence or alter the viability of the cells after cooling.
The amount represents the % cells that survived. […] In the control, the same procedure was applied to two badges of HEK cells.

[2] = system: apherese blood platelets; assay: Apheresis platelets stored with Sul 136, Annexin V test by flow cytometry; details: stored at 4° C. with Sul 136
Method: 300 μM suspension of Sul 136 is added with a procedure, which keeps the bag content sterile and the Sul 136 is kept in suspension by frequent whirling and stored at 37° C. before it is added to the freshly harvested platelets. The Sul 136 suspension is added to three platelet bags directly from the bag. After addition, the content of the platelet bag is gently mixed. After 2 hours the first sample is drawn with a seal-docked sample bag. The sample bag is disconnected by welding and from this sample bag the samples are taken for hematology analyzing, aggregometer tests and the flow-cytometry tests. Swirling in the bag is reported by experience of the laboratory worker in the standard format. Platelets without Sul 136 put on a flatbed shaker and stored at room temperature were used as control. Another control is stored at 4° C. Platelet samples in which Sul 136 is added, are stored without shaking in a refrigerator at 4° C.
On a Beckman Coulter FC 500 flow cytometer using the Roche Annexin-V FLUOS Staining Kit
A mix of 20 μl Annexin-V fluorescein from Roche kit into 1 ml incubation buffer was made and 20 μl propidium iodide solution was added. 2 ml of platelet concentrate was centrifuged on standard Eppendorf centrifuge and the supernatant was discarded.
1 ml PBS buffer was added and cell concentration was checked whether it was around 1.000.000. This was diluted 100 times with the prepared Annexin-V fluorescein and propidium iodide mix and incubated for 15 minutes. 500 μl incubation buffer from kit was added and cell analysis was made in a flowcytometer.

[3] = system: PRP platelets; assay: PRP platelets stored with Sul 136, aggregation after stimulation with collagen; parameters: key: +means that the cells show aggregation and can thus be activated upon stimulation; −means no aggregation upon stimulation
Method: […] • The color and coagulation properties were visually analysed. • The thrombocyte cells that survived were counted and it was evaluated whether the thrombocytes were aggregated. • It was evaluated if the thrombocytes still were able to function after stimulation by the addition of ADP or under influence of collagen in a 96 well plate. • The adhesion was evaluated, meaning the ability of the platelets to bind collagen in a 6 well plate preincubated with collagen. • Via an ELISA assay, it was evaluated whether thromboxane was secreted from the platelets. Thromboxane facilitates aggregation and is produced by activated blood platelets.
(+means that the cells show aggregation, ++means strong aggregation, these platelets can thus be activated upon stimulation, −means no aggregation upon stimulation)

Cc1c(C)c2c(c(C)c1O)CCC(C)(C(=O)N1CCN(CC(=O)O)CC1)O2 (racemic) [SUL - 136, 2-(4-(6-hydroxy-2,5,7,8-tetramethylchroman-2-carbonyl)piperazin-1-yl)acetic acid]
viability at 0.01 µM ([1]; Homo sapiens, HEK293, 24 h, 10 nM, 24 h at 4° C., 24 h rewarming, read-out: % cells that survived): 99.6% | viability at 0.1 µM ([1]; Homo sapiens, HEK293, 24 h, 100 nM, 24 h at 4° C., 24 h rewarming, read-out: % cells that survived): 100% | viability at 1 µM ([1]; Homo sapiens, HEK293, 24 h, 1 μM, 24 h at 4° C., 24 h rewarming, read-out: % cells that survived): 98.4% | viability at 10 µM ([1]; Homo sapiens, HEK293, 24 h, 10 μM, 24 h at 4° C., 24 h rewarming, read-out: % cells that survived): 99.5% | viability at 100 µM ([1]; Homo sapiens, HEK293, 24 h, 100 μM, 24 h at 4° C., 24 h rewarming, read-out: % cells that survived): 99.3% | viability at 1000 µM ([1]; Homo sapiens, HEK293, 24 h, 1 mM, 24 h at 4° C., 24 h rewarming, read-out: % cells that survived): 100% | % cells that survived, Mean ([1]; mean over the tested concentrations): 99% | Annexin (% positive) ([2]; Donor 2, Day 1): 5.98% | Annexin (% positive) ([2]; Donor 2, Day 2): 10.96% | Annexin (% positive) ([2]; Donor 2, Day 3): 19.56% | Annexin (% positive) ([2]; Donor 2, Day 5): 32.11% | Annexin (% positive) ([2]; Donor 2, Day 8): 45.71% | Annexin (% positive) ([2]; Donor 2, Day 10): 53.96% | Annexin (% positive) ([2]; Donor 2, Day 12): 62.97% | Annexin (% positive) ([2]; Donor 2, Day 19): 72.67% | Annexin (% positive) ([2]; Donor 3, Day 1): 5.14% | Annexin (% positive) ([2]; Donor 3, Day 2): 8.68% | Annexin (% positive) ([2]; Donor 3, Day 3): 14.34% | Annexin (% positive) ([2]; Donor 3, Day 5): 27.77% | Annexin (% positive) ([2]; Donor 3, Day 8): 41.97% | Annexin (% positive) ([2]; Donor 3, Day 10): 62.65% | Annexin (% positive) ([2]; Donor 3, Day 12): 70.33% | Annexin (% positive) ([2]; Donor 3, Day 19): 80.99% | Annexin (% positive) ([2]; donor 1, Day 1): 4.51% | Annexin (% positive) ([2]; donor 1, Day 2): 14.48% | Annexin (% positive) ([2]; donor 1, Day 3): 18.24% | Annexin (% positive) ([2]; donor 1, Day 5): 20.38% | Annexin (% positive) ([2]; donor 1, Day 8): 34.56% | Annexin (% positive) ([2]; donor 1, Day 10): 43.52% | Annexin (% positive) ([2]; donor 1, Day 12): 56.91% | Annexin (% positive) ([2]; donor 1, Day 19): 88.34% | aggregation of the PRP platelets after stimulation with collagen ([3]; 10 min 0.001 mM, 24 h): − | aggregation of the PRP platelets after stimulation with collagen ([3]; 10 min 0.001 mM, 48 h): − | aggregation of the PRP platelets after stimulation with collagen ([3]; 10 min 0.001 mM, 72 h): − | aggregation of the PRP platelets after stimulation with collagen ([3]; 10 min 0.001 mM, 216 h): − | aggregation of the PRP platelets after stimulation with collagen ([3]; 10 min 0.01 mM, 24 h): − | aggregation of the PRP platelets after stimulation with collagen ([3]; 10 min 0.01 mM, 48 h): − | aggregation of the PRP platelets after stimulation with collagen ([3]; 10 min 0.01 mM, 72 h): − | aggregation of the PRP platelets after stimulation with collagen ([3]; 10 min 0.01 mM, 216 h): − | aggregation of the PRP platelets after stimulation with collagen ([3]; 10 min 0.1 mM, 48 h): − | aggregation of the PRP platelets after stimulation with collagen ([3]; 10 min 0.1 mM, 72 h): − | aggregation of the PRP platelets after stimulation with collagen ([3]; 10 min 0.1 mM, 216 h): − | aggregation of the PRP platelets after stimulation with collagen ([3]; 10 min 1 mM, 48 h): − | aggregation of the PRP platelets after stimulation with collagen ([3]; 60 min 0.001 mM, 24 h): − | aggregation of the PRP platelets after stimulation with collagen ([3]; 60 min 0.001 mM, 48 h): − | aggregation of the PRP platelets after stimulation with collagen ([3]; 60 min 0.001 mM, 72 h): − | aggregation of the PRP platelets after stimulation with collagen ([3]; 60 min 0.001 mM, 216 h): − | aggregation of the PRP platelets after stimulation with collagen ([3]; 60 min 0.01 mM, 24 h): − | aggregation of the PRP platelets after stimulation with collagen ([3]; 60 min 0.01 mM, 48 h): − | aggregation of the PRP platelets after stimulation with collagen ([3]; 60 min 0.01 mM, 72 h): − | aggregation of the PRP platelets after stimulation with collagen ([3]; 60 min 0.01 mM, 216 h): − | aggregation of the PRP platelets after stimulation with collagen ([3]; 60 min 0.1 mM, 24 h): − | aggregation of the PRP platelets after stimulation with collagen ([3]; 60 min 0.1 mM, 48 h): − | aggregation of the PRP platelets after stimulation with collagen ([3]; 60 min 0.1 mM, 72 h): − | aggregation of the PRP platelets after stimulation with collagen ([3]; 60 min 0.1 mM, 216 h): − | aggregation of the PRP platelets after stimulation with collagen ([3]; 60 min 1 mM, 24 h): − | aggregation of the PRP platelets after stimulation with collagen ([3]; 60 min 1 mM, 48 h): − | aggregation of the PRP platelets after stimulation with collagen ([3]; 60 min 1 mM, 72 h): − | aggregation of the PRP platelets after stimulation with collagen ([3]; 60 min 10 mM, 216 h): −

From patent US11006626B2, “Compounds for protection of cells” (Sulfateq B.V., priority 2012, dated 2021)
